pIC50: −log10 of the molar value.
Assays:
[1] = target: T1, kinases (kinome) (Homo sapiens, UniProt O00329); assay: kinobeads assay with mass spectrometry detection of kinases (kinase selectivity profile); format: binding; conditions: PIK3Cd (Lipid Kinase), IPI00384817
T1 construct: determined in kinobeads assays with mass spectrometry detection of kinases as described previously; endogenous in cells; host or cells: cell lysate
T1 sequence (O00329 1-1044): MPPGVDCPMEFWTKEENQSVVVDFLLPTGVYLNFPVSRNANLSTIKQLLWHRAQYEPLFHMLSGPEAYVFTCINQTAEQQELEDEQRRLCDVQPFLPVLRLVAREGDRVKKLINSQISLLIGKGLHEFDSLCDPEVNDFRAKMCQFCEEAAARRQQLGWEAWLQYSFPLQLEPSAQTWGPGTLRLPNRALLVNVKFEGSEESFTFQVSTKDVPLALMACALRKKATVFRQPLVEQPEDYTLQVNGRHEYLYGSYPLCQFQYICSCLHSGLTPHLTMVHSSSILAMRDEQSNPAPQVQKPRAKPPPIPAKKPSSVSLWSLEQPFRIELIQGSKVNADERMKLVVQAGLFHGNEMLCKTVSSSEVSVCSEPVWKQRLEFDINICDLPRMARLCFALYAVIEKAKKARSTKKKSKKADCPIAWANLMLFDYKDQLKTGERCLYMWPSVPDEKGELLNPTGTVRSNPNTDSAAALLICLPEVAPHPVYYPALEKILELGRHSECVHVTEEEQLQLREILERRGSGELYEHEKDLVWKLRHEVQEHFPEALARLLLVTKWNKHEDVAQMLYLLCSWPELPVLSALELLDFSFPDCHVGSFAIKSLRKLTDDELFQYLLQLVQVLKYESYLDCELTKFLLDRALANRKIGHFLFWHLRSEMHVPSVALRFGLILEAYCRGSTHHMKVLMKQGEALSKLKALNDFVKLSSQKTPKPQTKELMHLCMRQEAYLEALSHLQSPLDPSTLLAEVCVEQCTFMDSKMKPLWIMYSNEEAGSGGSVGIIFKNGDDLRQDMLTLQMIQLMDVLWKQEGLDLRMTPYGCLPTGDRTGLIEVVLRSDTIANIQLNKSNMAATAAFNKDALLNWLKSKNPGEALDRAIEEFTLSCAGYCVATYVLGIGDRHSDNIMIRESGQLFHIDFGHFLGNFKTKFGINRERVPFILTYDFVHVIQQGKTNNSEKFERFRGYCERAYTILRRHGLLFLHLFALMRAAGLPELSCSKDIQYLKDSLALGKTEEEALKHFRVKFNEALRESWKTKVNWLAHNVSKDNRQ
From the text: (§1) The protein kinase complement of the human genome (the kinome) was described previously (Manning et al., 2002. Science 298(5600):1912-1934). Sequence accession numbers are defined by the International Protein Index (IPI) (Kersey et al., 2004. Proteomics 4(7):1985-1988).

[2] = target: T2, kinases (kinome) (Homo sapiens, UniProt Q08881); assay: as above; format: binding; conditions: ITK (TK), IPI00004566
T2 construct: determined in kinobeads assays with mass spectrometry detection of kinases as described previously; endogenous in cells; host or cells: cell lysate
T2 sequence (Q08881 1-620): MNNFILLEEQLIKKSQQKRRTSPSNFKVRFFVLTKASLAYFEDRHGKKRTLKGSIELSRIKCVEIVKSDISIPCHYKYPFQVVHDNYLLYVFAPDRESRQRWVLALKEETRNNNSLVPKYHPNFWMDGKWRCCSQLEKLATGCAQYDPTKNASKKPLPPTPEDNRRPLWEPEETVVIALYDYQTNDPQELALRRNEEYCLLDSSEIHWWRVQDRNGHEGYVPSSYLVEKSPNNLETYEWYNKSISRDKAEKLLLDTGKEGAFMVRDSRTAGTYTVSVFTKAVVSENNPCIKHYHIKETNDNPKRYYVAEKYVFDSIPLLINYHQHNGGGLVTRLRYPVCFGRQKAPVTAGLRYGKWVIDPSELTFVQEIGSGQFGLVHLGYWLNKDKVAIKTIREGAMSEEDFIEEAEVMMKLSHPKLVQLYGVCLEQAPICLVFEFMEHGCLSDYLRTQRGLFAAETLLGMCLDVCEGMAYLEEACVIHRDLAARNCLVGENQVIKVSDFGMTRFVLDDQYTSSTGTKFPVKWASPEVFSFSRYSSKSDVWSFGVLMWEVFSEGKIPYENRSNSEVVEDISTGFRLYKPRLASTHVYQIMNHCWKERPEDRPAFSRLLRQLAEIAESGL
From the text: as §1

C[C@H]1COCCN1c1nc(-c2ccc(NC(=O)NC3CC3)cc2)cc(-c2ccccc2S(C)(=O)=O)n1 [Example 4, (S)-1-cyclopropyl-3-(4-(2-(3-methylmorpholino)-6-(2-(methylsulfonyl)phenyl)pyrimidin-4-yl)phenyl)urea]
pIC50 [1]: < 5.00
pIC50 [2]: < 5.00

C[C@H]1COCCN1c1cc(-c2ccccc2S(C)(=O)=O)nc(-c2ccc(NC(=O)NC3CC3)cc2)n1 [Example 6, (S)-1-cyclopropyl-3-(4-(4-(3-methylmorpholino)-6-(2-(methylsulfonyl)phenyl)pyrimidin-2-yl)phenyl)urea]
pIC50 [1]: < 5.00
pIC50 [2]: < 5.00

C[C@H]1COCCN1c1nc(-c2ccc(NC(=O)N[C@H]3CCC[C@@H]3O)cc2)cc(-c2cc(F)ccc2S(C)(=O)=O)n1 [Example 76, 1-(4-(6-(5-fluoro-2-(methylsulfonyl)phenyl)-2-((S)-3-methylmorpholino)pyrimidin-4-yl)phenyl)-3-((1S,2S)-2-hydroxycyclopentyl)urea]
pIC50 [1]: < 5.00
pIC50 [2]: < 5.00

C[C@H]1COCCN1c1nc(-c2ccc(NC(=O)NC3CC3)cc2)cc(-c2cccnc2S(C)(=O)=O)n1 [Example 46, (S)-1-cyclopropyl-3-(4-(2-(3-methylmorpholino)-6-(2-(methylsulfonyl)pyridin-3-yl)pyrimidin-4-yl)phenyl)urea]
pIC50 [1]: < 5.00
pIC50 [2]: < 5.00

C[C@H]1COCCN1c1cc(-c2ccccn2)nc(-c2ccc(NC(=O)NCCO)cc2)n1 [Example 43, (S)-1-(2-hydroxyethyl)-3-(4-(4-(3-methylmorpholino)-6-(pyridin-2-yl)pyrimidin-2-yl)phenyl)urea]
pIC50 [1]: < 5.00
pIC50 [2]: < 5.00

C[C@H]1COCCN1c1nc(-c2ccc(NC(=O)NC3CC3)cc2)cc(-c2cc(F)ccc2S(C)(=O)=O)n1 [Example 40, (S)-1-cyclopropyl-3-(4-(6-(5-fluoro-2-(methylsulfonyl)phenyl)-2-(3-methylmorpholino)pyrimidin-4-yl)phenyl)urea]
pIC50 [1]: < 5.00
pIC50 [2]: < 5.00

CCNC(=O)Nc1ccc(-c2cc(-c3ccccc3C#N)nc(N3CCOC[C@@H]3C)n2)cc1 [Example 8, (S)-1-(4-(6-(2-cyanophenyl)-2-(3-methylmorpholino)pyrimidin-4-yl)phenyl)-3-ethylurea]
pIC50 [1]: < 5.00
pIC50 [2]: < 5.00

From patent US9249129B2, “Morpholino substituted urea derivatives as mTOR inhibitors” (CELLZOME LIMITED, priority 2010, dated 2016)
